From ChEMBL document CHEMBL1201862, “PubChem BioAssay data set” (2004) come the findings set out here.

Each structure is given as a SMILES string.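 1) Cells in 96-well plates. 2) Compound, 48 h, 5 concentrations. 3) Linear interpolation between surrounding doses. 4) Unreached endpoint = highest concentration. GI50: concentration for 50% inhibition of growth.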 Calls of active or inactive are those of the source. Rule as the data show it: active = GI50 up to about 1.1 µM and inactive = higher. Where only a bound is given, the exact number is not on record here.

Test systems include RPMI-8226; IGROV-1; NCI-H460; A549; KM12; OVCAR-5; SW-620; MOLT-4; HOP-62; HL-60; K562; HCC 2998; SF-539; SK-OV-3; SNB-19; UO-31; CCRF-CEM; SK-MEL-28; U-251; SNB-75.
Holding throughout (assay): NCI tumour cell line growth inhibition, 48 h

With `CON(C)C(C#N)=C(C#N)C#N`, the GI50 in the assay on RPMI-8226, in the assay with IGROV-1, in the assay with NCI-H460, in the assay on A549, in the assay with KM12 and with OVCAR-5 was > 10 µM (inactive) in each case. Besides, the GI50 with SW-620, with MOLT-4, in the assay with HOP-62, in the assay with HL-60, with K562 and in the assay with HCC 2998 was > 10 µM (inactive) in each case. Moreover, the GI50 in the assay on SF-539, in the assay on SK-OV-3, with SNB-19, in the assay on UO-31, in the assay on CCRF-CEM and with SK-MEL-28 was > 10 µM (inactive) each time. In addition, the GI50 with U-251 and in the assay on SNB-75 was > 10 µM (inactive) in each case.
For the compound `O=[N+]([O-])c1ccc(N2N=C(c3ccc(NCc4nc5ccccc5[nH]4)cc3)CC2c2ccco2)cc1` (stereo not given), the GI50 in the assay with RPMI-8226 is 12.4 µM (inactive); in the assay with IGROV-1 it was 33 µM (inactive); with NCI-H460, 24.8 µM (inactive); in the assay with A549, 34.8 µM (inactive); in the assay on KM12 it was 16.7 µM (inactive); in the assay on OVCAR-5, 49 µM (inactive). The GI50 in the assay on SW-620 was 34.7 µM (inactive); in the assay with MOLT-4, 10.4 µM (inactive); in the assay with HOP-62, 37.2 µM (inactive); in the assay on HL-60, 17.6 µM (inactive); with K562, 20.4 µM (inactive); in the assay with HCC 2998, 30.9 µM (inactive). Further, the GI50 in the assay with SF-539 is 26.1 µM (inactive); in the assay on SK-OV-3, 82.2 µM (inactive); with SNB-19 it was 23.4 µM (inactive); in the assay on UO-31, 6.53 µM (inactive); with CCRF-CEM it was 21.6 µM (inactive); in the assay on SK-MEL-28 it was 37.4 µM (inactive). For the same compound, the GI50 is 29.8 µM (inactive) with U-251 and 27.9 µM (inactive) with SNB-75.
As to `CC1NC(=O)C(C)C(c2ccccc2)N(N=O)C1c1ccccc1` (stereo not given), the GI50 is 33.6 µM (inactive) with RPMI-8226; > 81.5 µM (inactive) in the assay with IGROV-1; > 61.7 µM (inactive) with NCI-H460; > 100 µM (inactive) with A549; 74.1 µM (inactive) in the assay with KM12; > 100 µM (inactive) in the assay with OVCAR-5. Moreover, the GI50 in the assay with SW-620 was > 100 µM (inactive); in the assay with MOLT-4 it was 36.8 µM (inactive); with HOP-62, > 87.9 µM (inactive); with HL-60, 22.9 µM (inactive); with K562 it was 33 µM (inactive); in the assay with HCC 2998 it was 52.4 µM (inactive). Further, the GI50 in the assay on SF-539 was > 100 µM (inactive); in the assay on SK-OV-3, 28.2 µM (inactive); in the assay on SNB-19, > 76.9 µM (inactive); in the assay on UO-31, > 92.5 µM (inactive); with CCRF-CEM it was 55.7 µM (inactive); with SK-MEL-28, > 100 µM (inactive). Further, the figures for the GI50 in the assay with U-251 and in the assay on SNB-75 were > 100 µM (inactive) and > 38.3 µM (inactive), respectively.
Consider `CC(=O)Nc1ccc(C(=O)NN2C(=O)C(Cl)/C2=C/c2ccco2)cc1` (stereo not given), for which the GI50 in the assay with RPMI-8226, in the assay with IGROV-1, in the assay on NCI-H460, with A549, in the assay with KM12 and with OVCAR-5 was > 100 µM (inactive) each time. The GI50 in the assay on SW-620, with MOLT-4, in the assay on HOP-62, with HL-60, in the assay with K562 and in the assay with HCC 2998 was > 100 µM (inactive) in each case. For the same compound, the GI50 in the assay with SF-539, in the assay on SK-OV-3, with SNB-19, in the assay with UO-31, with CCRF-CEM and in the assay with SK-MEL-28 was > 100 µM (inactive) in each case. The GI50 in the assay with U-251 and with SNB-75 was > 100 µM (inactive) in each case.
Turning to `CC1=CC(C)C(C)N(CC2=NCCN2)c2ccccc21` (stereo not given), the GI50 was 38.7 µM (inactive) with RPMI-8226; > 100 µM (inactive) with IGROV-1; 60.8 µM (inactive) in the assay on NCI-H460; > 87.3 µM (inactive) with A549; > 68.4 µM (inactive) in the assay on KM12; > 57.7 µM (inactive) with OVCAR-5. In addition, the GI50 in the assay on SW-620 was > 100 µM (inactive); in the assay on MOLT-4, 55 µM (inactive); in the assay with HOP-62 it was > 100 µM (inactive); in the assay with HL-60, > 47 µM (inactive); in the assay on K562 it was 36.9 µM (inactive); in the assay on HCC 2998, 17.9 µM (inactive). Besides, the GI50 with SF-539 was 62.1 µM (inactive); with SK-OV-3, 96.8 µM (inactive); in the assay on SNB-19, > 100 µM (inactive); in the assay on UO-31, 47.3 µM (inactive); in the assay with CCRF-CEM, 45.6 µM (inactive); in the assay on SK-MEL-28, 18.7 µM (inactive). For the same compound, the values for the GI50 with U-251 and in the assay with SNB-75 were 76.6 µM (inactive) and 46 µM (inactive), respectively.
Take `ClCc1ccc2ccc3ccc(CCl)nc3c2n1`: the GI50 in the assay with RPMI-8226 was 1.46 µM (inactive); with IGROV-1, 1.7 µM (inactive); in the assay on NCI-H460 it was 4.62 µM (inactive); in the assay on A549, 4.76 µM (inactive); with KM12 it was 0.9 µM (active); with OVCAR-5 it was 2.85 µM (inactive). For the same compound, the GI50 is 2.5 µM (inactive) with SW-620; 1.73 µM (inactive) with MOLT-4; 4.29 µM (inactive) in the assay on HOP-62; 1.8 µM (inactive) in the assay on HL-60; 3.18 µM (inactive) in the assay with K562; 4.11 µM (inactive) in the assay on HCC 2998. In addition, the GI50 with SF-539 is 2.25 µM (inactive); with SK-OV-3, 8.89 µM (inactive); with SNB-19, 11.9 µM (inactive); in the assay with UO-31, 1.69 µM (inactive); with CCRF-CEM it was 1.8 µM (inactive); with SK-MEL-28 it was 1.83 µM (inactive). The GI50 in the assay with U-251 is 1.93 µM (inactive); with SNB-75 it was 1.95 µM (inactive).
As for `C=C1C(=O)OC2CC1CCC1(C)OC1CCC(C)=CCCC2(C)O` (stereo not given), the GI50 is 1.51 µM (inactive) in the assay on RPMI-8226; 7.18 µM (inactive) in the assay with IGROV-1; 3.06 µM (inactive) in the assay with NCI-H460; 8.36 µM (inactive) in the assay on A549; 5.52 µM (inactive) in the assay with KM12; 10 µM (inactive) with OVCAR-5. Also, the GI50 in the assay with SW-620 is 1.12 µM (inactive); in the assay with MOLT-4, 1.87 µM (inactive); with HOP-62, 10.3 µM (inactive); in the assay with HL-60 it was 0.927 µM (active); with K562 it was 1.83 µM (inactive); in the assay on HCC 2998, 7.01 µM (inactive). The GI50 was 4.62 µM (inactive) in the assay on SF-539; 16.7 µM (inactive) with SK-OV-3; 14.1 µM (inactive) in the assay with SNB-19; 9.04 µM (inactive) in the assay on UO-31; 1.03 µM (active) in the assay on CCRF-CEM; 4.06 µM (inactive) with SK-MEL-28. In addition, the GI50 is 11.8 µM (inactive) in the assay on U-251 and 7.08 µM (inactive) in the assay on SNB-75.
With `Cc1cc(C(=O)NCCN(C)C)c2nc3ccccc3cc2c1`, the GI50 in the assay with RPMI-8226 was 1.55 µM (inactive); with IGROV-1 it was 2.39 µM (inactive); with NCI-H460, 0.372 µM (active); with A549, 0.867 µM (active); with KM12, 2.94 µM (inactive); with OVCAR-5, 1.98 µM (inactive). Besides, the GI50 in the assay on SW-620 was 0.889 µM (active); in the assay on MOLT-4, 0.381 µM (active); in the assay on HOP-62, 1.68 µM (inactive); in the assay on HL-60 it was 0.871 µM (active); with K562, 2.44 µM (inactive); in the assay with HCC 2998, 3.67 µM (inactive). Also, the GI50 in the assay with SF-539 was 3.76 µM (inactive); in the assay on SK-OV-3 it was 2.16 µM (inactive); in the assay with SNB-19, 2.01 µM (inactive); with UO-31, 1.42 µM (inactive); in the assay with CCRF-CEM it was 1.36 µM (inactive); in the assay on SK-MEL-28, 3.15 µM (inactive). Further, the GI50 with U-251 is 2.69 µM (inactive); with SNB-75, 3.13 µM (inactive).
In the case of `CN1C(=O)CCC1c1ccc2c(c1)oc(=O)n2C` (stereo not given), the GI50 in the assay on RPMI-8226, in the assay with IGROV-1, with NCI-H460, with A549, in the assay on KM12 and in the assay on OVCAR-5 was > 100 µM (inactive) in each case. Further, the GI50 with SW-620, in the assay on MOLT-4, in the assay with HOP-62, in the assay with HL-60, in the assay on K562 and with HCC 2998 was > 100 µM (inactive) throughout. Moreover, the GI50 in the assay on SF-539, in the assay on SK-OV-3, in the assay with SNB-19, in the assay on UO-31, in the assay on CCRF-CEM and in the assay on SK-MEL-28 was > 100 µM (inactive) each time. The GI50 in the assay on U-251 and in the assay on SNB-75 was > 100 µM (inactive) throughout.
For the compound `CC(=O)c1c2c(cc3c1CC1(Cc4cc5c(cc4C1)C(=O)CCC5)C3)CCCC2` (stereo not given), the GI50 is 3.48 µM (inactive) in the assay on RPMI-8226; 3.45 µM (inactive) in the assay on IGROV-1; 4.69 µM (inactive) in the assay on NCI-H460; > 21.5 µM (inactive) in the assay on A549; 5.3 µM (inactive) with KM12; 35.2 µM (inactive) with OVCAR-5. The GI50 with SW-620 is 5.25 µM (inactive); in the assay with MOLT-4 it was 2.59 µM (inactive); with HOP-62, 5.09 µM (inactive); with HL-60, 1.82 µM (inactive); in the assay with K562, 1.76 µM (inactive); with HCC 2998, 12.5 µM (inactive). The GI50 with SF-539 was 4.17 µM (inactive); in the assay with SK-OV-3 it was > 54.8 µM (inactive); with SNB-19, 13.8 µM (inactive); in the assay with UO-31, 9.4 µM (inactive); with CCRF-CEM, 1.77 µM (inactive); in the assay with SK-MEL-28 it was 7.38 µM (inactive). Moreover, the GI50 was 10.8 µM (inactive) in the assay on U-251 and 2.92 µM (inactive) in the assay with SNB-75.
